Like-named read-outs stand apart in the source and are kept apart here.
How the values were obtained:
[1] = test system: MDA-MB-231 breast cancer cell; assay: MTT cell viability assay, MDA-MB-231 breast cancer cell; format: cell-based, human
Protocol: Cell viability was evaluated by measuring the reduction in MTT to yield blue formazan. Cells were cultured in 96-well plates, allowed to attach overnight, and then treated with compounds. After treatment, MTT solution (1 mg/ml) was added to each well, and plates were incubated for another 4 h.

[2] = test system: HCT-116 colon cancer cell; assay: MTT cell viability assay, HCT-116 colon cancer cell; format: cell-based
Protocol: (§1) Cell viability was evaluated by measuring the reduction in MTT to yield blue formazan. Cells were cultured in 96-well plates, allowed to attach overnight, and then treated with compounds. After treatment, MTT solution (1 mg/ml) was added to each well, and plates were incubated for another 4 h. Medium were removed, blue formazan was dissolved in DMSO, and the absorbance was read at 570 nm^20.

PC3 prostate cancer cell = assay: MTT cell viability assay, PC3 prostate cancer cell; format: cell-based
Protocol: as §1

[3] = MDA-MB-231, treated 24 hours, read-out: IC50 24 hours
[4] = MDA-MB-231, treated 48 hours, read-out: IC50 48 hours
[5] = MDA-MB-231, treated 72 hours, read-out: IC50 72 hours
[6] = HCT-116, treated 24 hours, read-out: IC50 24 hours
[7] = HCT-116, treated 48 hours, read-out: IC50 48 hours
[8] = HCT-116, treated 72 hours, read-out: IC50 72 hours
[9] = PC-3, treated 24 hours, read-out: IC50 24 hours
[10] = PC-3, treated 48 hours, read-out: IC50 48 hours
[11] = PC-3, treated 72 hours, read-out: IC50 72 hours
[12] = Homo sapiens, MDA-MB-231, 24 h, MDA-MB-231, treated 24 hours, read-out: IC50 24 hours
[13] = Homo sapiens, MDA-MB-231, 48 h, MDA-MB-231, treated 48 hours, read-out: IC50 48 hours
[14] = Homo sapiens, MDA-MB-231, 72 h, MDA-MB-231, treated 72 hours, read-out: IC50 72 hours
[15] = Homo sapiens, HCT-116, treated 24 hours, read-out: IC50 24 hours
[16] = Homo sapiens, HCT-116, treated 48 hours, read-out: IC50 48 hours
[17] = Homo sapiens, HCT-116, treated 72 hours, read-out: IC50 72 hours

SMILES	IC50 [1, 3] [µM]	IC50 [1, 4] [µM]	IC50 [1, 5] [µM]	IC50 [2, 6] [µM]	IC50 [2, 7] [µM]	IC50 [2, 8] [µM]	IC50 (PC3 prostate cancer cell; [9]) [µM]	IC50 (PC3 prostate cancer cell; [10]) [µM]	IC50 (PC3 prostate cancer cell; [11]) [µM]	IC50 [1, 12] [µM]	IC50 [1, 13] [µM]	IC50 [1, 14] [µM]	IC50 [2, 15] [µM]	IC50 [2, 16] [µM]	IC50 [2, 17] [µM]
O=C(/C=C/c1ccc(O)cc1)CC(=O)/C=C/c1ccc(O)cc1 [Bisdemethoxycurcumin, bisdemethoxycurcumin, reference compound]	> 100	26.92 ± 0.19	27.5 ± 0.42	> 100	29.6 ± 0.78	23.7 ± 2.43	> 100	28.5 ± 1.09	26.9 ± 4.36						
CCC(CO)(CO)C(=O)Oc1ccc(/C=C/C(=O)/C=C(O)/C=C/c2ccc(OC(=O)C(CC)(CO)CO)c(OC)c2)cc1OC [Compound 22a, ((1E,3Z,6E)-3-Hydroxy-1-oxohepta-1,3,6-triene-1,7-diyl)bis(2-methoxy-4,1-phenylene) bis(2,2-bis(hydroxymethyl)butanoate)]	4.71 ± 0.29	2.56 ± 0.18	2	5.82 ± 0.56	2.4 ± 0.32	1.34 ± 0.04	6.91 ± 0.67	5.12 ± 0.29	4.21 ± 0.14						
CCC(CO)(CO)C(=O)Oc1cc(/C=C/C(=O)/C=C(O)/C=C/c2ccc(OC)c(O)c2)ccc1OC [Compound 25]	9.64 ± 0.07	4.94 ± 0.03	3.85	7.62 ± 0.41	4.77 ± 0.1	3.64 ± 0.03	15.9 ± 2.23	8.74 ± 0.01	7.03 ± 0.12						
CC(CO)(CO)C(=O)Oc1ccc(/C=C/C(=O)CC(=O)/C=C/c2ccc(OC(=O)C(C)(CO)CO)c(OC(F)(F)F)c2)cc1OC(F)(F)F [Compound 28, ((1E,6E)-3,5-dioxohepta-1,6-diene-1,7-diyl)bis(2-(trifluoromethoxy)-4,1-phenylene) bis(3-hydroxy-2-(hydroxymethyl)-2-methylpropanoate)]							67.1 ± 3.39	53.9 ± 3.01	30.2 ± 2.37	16.6 ± 3.04	8.6 ± 0.74	7.78 ± 0.09	8.94 ± 0.66	7.11 ± 0.07	6.27 ± 0.1
CCC(CO)(CO)C(=O)Oc1ccc(/C=C/C(=O)CC(=O)/C=C/c2ccc(OC(=O)C(CC)(CO)CO)c(OC(F)(F)F)c2)cc1OC(F)(F)F [Compound 29, ((1E,6E)-3,5-dioxohepta-1,6-diene-1,7-diyl)bis(2-(trifluoromethoxy)-4,1-phenylene) bis(2,2-bis(hydroxymethyl)butanoate)]							37 ± 0.56	29.7 ± 2.83	8.1 ± 1.56	9.48 ± 0.44	7.79 ± 0.61	7.22 ± 0.41	7.43 ± 0.1	4.69 ± 0.49	4.38 ± 0.26
COc1cc(/C=C/C(=O)/C=C(O)/C=C/c2cc(OC)c(OC(=O)C(C)(CO)CO)c(OC)c2)cc(OC)c1OC(=O)C(C)(CO)CO [Compound 30, ((1E,3Z,6E)-3-hydroxy-5-oxohepta-1,3,6-triene-1,7-diyl)bis(2,6-dimethoxy-4,1-phenylene) bis(3-hydroxy-2-(hydroxymethyl)-2-methylpropanoate)]							7.79 ± 1.42	7.7 ± 0.87	3.14 ± 0.33	17.5 ± 2.85	8.9 ± 1.28	6.19 ± 0.04	8.34 ± 0.83	4.77 ± 0.44	5.18 ± 0.76
CCc1cc(/C=C/C(=O)CC(=O)/C=C/c2cc(CC)c(OC(=O)C(C)(CO)CO)c(CC)c2)cc(CC)c1OC(=O)C(C)(CO)CO [Compound 31, ((1E,6E)-3,5-dioxohepta-1,6-diene-1,7-diyl)bis(2,6-diethyl-4,1-phenylene) bis(3-hydroxy-2-(hydroxymethyl)-2-methylpropanoate)]							19.9 ± 1.27	7.49 ± 0.18	4.14 ± 1.1	8.68 ± 0.07	7.4 ± 0.63	3.82 ± 0.03	7.21 ± 0.21	3.67 ± 0.01	3.51 ± 0.01
COc1cc(/C=C/C(=O)C(Cc2ccccc2)(Cc2ccccc2)C(=O)/C=C/c2ccc(OC(=O)C(C)(CO)CO)c(OC)c2)ccc1OC(=O)C(C)(CO)CO [Compound 35c, ((1E,6E)-4,4-Dibenzyl-3,5-dioxohepta-1,6-dine-1,7-diyl)bis(2-methoxy-4,1-phenylene) bis(3-hydroxy-2-(hydroxymethyl)-2-methylpropanoate)]	6.03 ± 2.52	2.45 ± 0.24	2.11 ± 0.04	12.9 ± 2.03	7.66 ± 0.61	3.88 ± 0.16	17.59 ± 0.14	9.09 ± 0.99	7.28 ± 0.5						
C#CCC(CC#C)(C(=O)/C=C/c1ccc(OC(=O)C(C)(CO)CO)c(OC)c1)C(=O)/C=C/c1ccc(OC(=O)C(C)(CO)CO)c(OC)c1 [Compound 35d, ((1E,6E)-3,5-Dioxo-4,4-di(prop-2-yn-1-yl)hepta-1,6-diene-1,7-diyl)bis(2-methoxy-4,1-phenylene) bis(3-hydroxy-2-(hydroxymethyl)-2-methylpropanoate)]							17.1 ± 1.74	11.5 ± 0.96	6.7 ± 0.75	28.5 ± 5.29		4.9	14.5 ± 1.01		3.92 ± 0.24
CC(CO)(CO)C(=O)Oc1ccc(/C=C/C(=O)C(C)(C)C(=O)/C=C/c2ccc(OC(=O)C(C)(CO)CO)cc2)cc1 [Compound 36, ((1E,6E)-4,4-Dimethyl-3,5-dioxohepta-1,6-diene-1,7-diyl)bis(4,1-phenylene) bis(3-hydroxy-2-(hydroxymethyl)-2-methylpropanoate)]			2.98 ± 0.09				17.1 ± 1.81	7.49 ± 0.33	3.62 ± 0.11	7.74 ± 0.41	3.13 ± 0.04	2.89	4.12 ± 0.1	3.43 ± 0.2	2.63 ± 0.06
COc1ccc(/C=C/C(=O)C(C)(C)C(=O)/C=C/c2ccc(OC)c(OC(=O)C(C)(CO)CO)c2)cc1OC(=O)C(C)(CO)CO [Compound 37, ((1E,6E)-4,4-Dimethyl-3,5-dioxohepta-1,6-dien-1,7-diyl)bis(2-methoxy-5,1-phenylene) bis(3-hydroxy-2-(hydroxymethyl)-2-methylpropanoate)]							2.86 ± 0.83	1.59 ± 0.24	1.84 ± 0.12	7.6 ± 0.94	2.71 ± 0.23	2.7	5.9 ± 1.87	2.71 ± 0.39	1.26 ± 0.04
COc1cc(/C=C/C(=O)CC(=O)/C=C/c2ccc(OC(=O)C(CO)(CO)CO)c(OC)c2)ccc1O [Compound 38a, 4-((1E,6E)-7-(4-hydroxy-3-methoxyphenyl)-3,5-dioxohept-1,6-den-1-yl)-2-methoxyphenyl 3-hydroxy-2,2-bis(hydroxymethyl)propanoate]							46.5 ± 0.48	34.9 ± 0.2	32.7 ± 0.56	47.3 ± 1.31	21.1 ± 1.01	17.5 ± 1.62	39.59 ± 0.23	18.4 ± 0.62	9.86 ± 0.01
COc1cc(/C=C/C(=O)CC(=O)/C=C/c2ccc(OC(=O)C(CO)(CO)COC(=O)C(CO)(CO)CO)c(OC)c2)ccc1O [Compound 38b]							≥ 100	67.5 ± 1.25	63.94 ± 0.47	82.6 ± 1.67	64.8 ± 2.39	55.3 ± 3.2	75 ± 3.1	61.3 ± 2.85	43.7 ± 1.36

From patent publication US10787413B2, “Derivatives of curcuminoids and use thereof as an anticancer agent” (CHINA MEDICAL UNIVERSITY, priority 2016, dated 2020)
